Values of other authors, collected in patent publication US20030225048A1, “Sulfatase inhibiting continuous progestogen contraceptive regimens” (priority 2002, published 2003).

Settings: humans; norelgestromin is the major metabolite

- norgestimate converted to norelgestromin in vivo: ≥ 80%
SMILES: C#C[C@]1(OC(C)=O)CC[C@H]2[C@@H]3CCC4=CC(=NO)CC[C@@H]4[C@H]3CC[C@@]21CC (mixture of isomers) [norgestimate]
